In PubChem BioAssay (NCI):
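Step 1: Grow cells in 96-well plates. Step 2: Expose to compound for 48 hours at 5 concentrations. Step 3: Interpolate endpoints linearly; if unreached, use highest concentration. TGI marks complete inhibition of growth.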

Columns and labels:
Assay in all cases: NCI tumour cell line growth inhibition, 48 h
A498 renal = tested on: A498 renal
A549 NSCLC = tested on: A549 NSCLC
CAKI-1 renal = tested on: CAKI-1 renal
CCRF-CEM leukemia = tested on: CCRF-CEM leukemia
COLO 205 colon = tested on: COLO 205 colon
DLD-1 colon = tested on: DLD-1 colon
DMS 114 small cell lung = tested on: DMS 114 small cell lung
DMS 273 small cell lung = tested on: DMS 273 small cell lung
EKVX NSCLC = tested on: EKVX NSCLC
HCC-2998 colon = tested on: HCC-2998 colon
HCT-116 colon = tested on: HCT-116 colon
HCT-15 colon = tested on: HCT-15 colon
HL-60(TB) leukemia = tested on: HL-60(TB) leukemia
HOP-18 NSCLC = tested on: HOP-18 NSCLC
HOP-62 NSCLC = tested on: HOP-62 NSCLC
HOP-92 NSCLC = tested on: HOP-92 NSCLC
HT29 colon = tested on: HT29 colon
IGROV1 ovarian = tested on: IGROV1 ovarian
K-562 leukemia = tested on: K-562 leukemia
KM12 colon = tested on: KM12 colon
KM20L2 colon = tested on: KM20L2 colon
LOX IMVI melanoma = tested on: LOX IMVI melanoma
M19-MEL melanoma = tested on: M19-MEL melanoma
MALME-3M melanoma = tested on: MALME-3M melanoma
MCF7 breast = tested on: MCF7 breast
MOLT-4 leukemia = tested on: MOLT-4 leukemia
NCI-H226 lung = tested on: NCI-H226 lung
NCI-H23 lung = tested on: NCI-H23 lung
NCI-H460 lung = tested on: NCI-H460 lung
NCI-H522 lung = tested on: NCI-H522 lung
NCI/ADR-RES ovarian = tested on: NCI/ADR-RES ovarian
OVCAR-3 ovarian = tested on: OVCAR-3 ovarian
OVCAR-4 ovarian = tested on: OVCAR-4 ovarian
OVCAR-5 ovarian = tested on: OVCAR-5 ovarian
OVCAR-8 ovarian = tested on: OVCAR-8 ovarian
P388 leukemia = tested on: P388 leukemia
P388/ADR leukemia = tested on: P388/ADR leukemia
RPMI-8226 leukemia = tested on: RPMI-8226 leukemia
RXF 393 renal = tested on: RXF 393 renal
SF-268 CNS = tested on: SF-268 CNS
SF-295 CNS = tested on: SF-295 CNS
SF-539 CNS = tested on: SF-539 CNS
SK-MEL-2 melanoma = tested on: SK-MEL-2 melanoma
SK-MEL-28 melanoma = tested on: SK-MEL-28 melanoma
SK-MEL-5 melanoma = tested on: SK-MEL-5 melanoma
SK-OV-3 ovarian = tested on: SK-OV-3 ovarian
SN12C renal = tested on: SN12C renal
SN12K1 renal = tested on: SN12K1 renal
SNB-19 CNS = tested on: SNB-19 CNS
SNB-75 CNS = tested on: SNB-75 CNS
SNB-78 CNS = tested on: SNB-78 CNS
SW-620 colon = tested on: SW-620 colon
U251 CNS = tested on: U251 CNS
UACC-257 melanoma = tested on: UACC-257 melanoma
UACC-62 melanoma = tested on: UACC-62 melanoma
UO-31 renal = tested on: UO-31 renal
XF 498 CNS = tested on: XF 498 CNS

Q: What does the source list for `COc1c2ccoc2c(S(=O)(=O)Nc2ccc(Cl)cc2)c2oc(C)cc(=O)c12`?
A: TGI (A498 renal): > 100 µM; TGI (A549 NSCLC): > 100 µM; TGI (CAKI-1 renal): > 95.9 µM; TGI (CCRF-CEM leukemia): > 100 µM; TGI (COLO 205 colon): > 100 µM; TGI (DLD-1 colon): > 100 µM; TGI (DMS 114 small cell lung): > 100 µM; TGI (DMS 273 small cell lung): > 100 µM; TGI (EKVX NSCLC): > 100 µM; TGI (HCC-2998 colon): > 100 µM; TGI (HCT-116 colon): > 89.2 µM; TGI (HCT-15 colon): > 100 µM; TGI (HL-60(TB) leukemia): > 31.6 µM; TGI (HOP-18 NSCLC): > 100 µM; TGI (HOP-62 NSCLC): > 100 µM; TGI (HOP-92 NSCLC): > 93.6 µM; TGI (HT29 colon): > 100 µM; TGI (IGROV1 ovarian): > 100 µM; TGI (K-562 leukemia): > 100 µM; TGI (KM12 colon): > 100 µM; TGI (KM20L2 colon): > 100 µM; TGI (LOX IMVI melanoma): > 100 µM; TGI (M19-MEL melanoma): > 100 µM; TGI (MALME-3M melanoma): > 100 µM; TGI (MCF7 breast): > 100 µM; TGI (MOLT-4 leukemia): > 100 µM; TGI (NCI-H226 lung): > 100 µM; TGI (NCI-H23 lung): > 100 µM; TGI (NCI-H460 lung): > 100 µM; TGI (NCI-H522 lung): > 100 µM; TGI (NCI/ADR-RES ovarian): > 100 µM; TGI (OVCAR-3 ovarian): > 100 µM; TGI (OVCAR-4 ovarian): > 67.2 µM; TGI (OVCAR-5 ovarian): > 100 µM; TGI (OVCAR-8 ovarian): > 100 µM; TGI (P388 leukemia): > 100 µM; TGI (P388/ADR leukemia): > 100 µM; TGI (RPMI-8226 leukemia): > 100 µM; TGI (RXF 393 renal): > 89.1 µM; TGI (SF-268 CNS): > 100 µM; TGI (SF-295 CNS): > 100 µM; TGI (SF-539 CNS): > 93.9 µM; TGI (SK-MEL-2 melanoma): > 100 µM; TGI (SK-MEL-28 melanoma): > 100 µM; TGI (SK-MEL-5 melanoma): > 100 µM; TGI (SK-OV-3 ovarian): > 100 µM; TGI (SN12C renal): > 100 µM; TGI (SN12K1 renal): > 100 µM; TGI (SNB-19 CNS): > 100 µM; TGI (SNB-75 CNS): 76.4 µM; TGI (SNB-78 CNS): > 100 µM; TGI (SW-620 colon): > 100 µM; TGI (U251 CNS): > 100 µM; TGI (UACC-257 melanoma): > 100 µM; TGI (UACC-62 melanoma): > 100 µM; TGI (UO-31 renal): > 100 µM; TGI (XF 498 CNS): > 100 µM
